inhibition, solubility and IC50 data for four molecules are collected here from ChEMBL document CHEMBL5143597, “Design and synthesis of novel spirocyclic carboxylic acids as potent and orally bioavailable DGAT1 inhibitors and their biological evaluation” (Bioorg Med Chem Lett, 2022).

In one series the target is T1, CYP1A2 (Homo sapiens, UniProt P05177).
T1 sequence (P05177 whole entry): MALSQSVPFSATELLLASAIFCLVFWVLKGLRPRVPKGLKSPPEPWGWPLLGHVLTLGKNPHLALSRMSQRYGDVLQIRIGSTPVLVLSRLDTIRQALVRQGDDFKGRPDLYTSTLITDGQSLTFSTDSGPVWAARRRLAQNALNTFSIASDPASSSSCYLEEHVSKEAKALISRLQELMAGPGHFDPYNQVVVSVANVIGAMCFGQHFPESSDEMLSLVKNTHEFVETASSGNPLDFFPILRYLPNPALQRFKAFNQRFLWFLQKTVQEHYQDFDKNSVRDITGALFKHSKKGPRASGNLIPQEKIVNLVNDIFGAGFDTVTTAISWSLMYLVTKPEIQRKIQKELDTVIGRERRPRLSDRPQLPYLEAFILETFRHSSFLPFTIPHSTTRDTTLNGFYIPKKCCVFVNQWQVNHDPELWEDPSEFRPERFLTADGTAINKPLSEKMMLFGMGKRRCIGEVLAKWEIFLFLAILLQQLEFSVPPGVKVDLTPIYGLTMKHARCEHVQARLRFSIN
The series is described as follows: Inhibition of recombinant human CYP1A2 at 25 uM by fluorescence plate reader analysis. In kind it is ADME.

A further series concerns the target CYP3A4 (Homo sapiens, UniProt P08684). The series is described as follows: Inhibition of recombinant human CYP3A4 at 25 uM by fluorescence plate reader analysis. In kind it is ADME.
The nature of series [1]: Solubility of compound in PBS at pH 2 incubated for 4 hrs under shaking condition by UV absorbance based analysis. In kind it is physicochemical.
A short description of series [2]: Solubility of compound in PBS at pH 4 incubated for 4 hrs under shaking condition by UV absorbance based analysis. In kind it is physicochemical.
Series [3] is described as follows: Solubility of compound in PBS at pH 7.4 incubated for 4 hrs under shaking condition by UV absorbance based analysis. In kind it is physicochemical.
Series [4] in a line: Solubility of compound in PBS at pH 9 incubated for 4 hrs under shaking condition by UV absorbance based analysis. In kind it is physicochemical.
In series [5] the target is T2, Diacylglycerol O-acyltransferase 1 (Homo sapiens, UniProt O75907).
T2 sequence (O75907 whole entry): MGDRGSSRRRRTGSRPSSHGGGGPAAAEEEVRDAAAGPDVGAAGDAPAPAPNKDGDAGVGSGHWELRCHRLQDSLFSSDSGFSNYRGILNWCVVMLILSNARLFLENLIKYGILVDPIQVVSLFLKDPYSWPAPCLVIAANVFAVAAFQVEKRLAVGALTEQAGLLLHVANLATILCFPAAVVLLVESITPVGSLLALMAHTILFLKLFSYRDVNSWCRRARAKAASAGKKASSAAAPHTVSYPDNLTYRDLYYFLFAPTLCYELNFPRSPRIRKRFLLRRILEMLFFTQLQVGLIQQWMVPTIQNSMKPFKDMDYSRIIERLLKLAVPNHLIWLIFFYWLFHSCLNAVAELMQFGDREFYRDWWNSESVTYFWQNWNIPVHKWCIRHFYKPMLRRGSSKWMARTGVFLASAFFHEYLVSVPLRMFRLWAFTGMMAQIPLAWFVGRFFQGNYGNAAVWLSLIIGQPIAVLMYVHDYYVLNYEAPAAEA
In words: Inhibition of human DGAT1 in serum starved HEK293 cells assessed as inhibition of triglyceride synthesis incubated for 20 mins followed by 13C-addition of 13C-oleic acid pre-complexed with BSA for 120 mins by LC-MS-based mass spectrophotometric analysis. In kind it is cell-based.

Another series deals with CYP2D6 (Homo sapiens, UniProt P10635). The series is described as follows: Inhibition of recombinant human CYP2D6 at 25 uM by fluorescence plate reader analysis. In kind it is ADME.
CYP2D6, sequence (P10635 whole entry): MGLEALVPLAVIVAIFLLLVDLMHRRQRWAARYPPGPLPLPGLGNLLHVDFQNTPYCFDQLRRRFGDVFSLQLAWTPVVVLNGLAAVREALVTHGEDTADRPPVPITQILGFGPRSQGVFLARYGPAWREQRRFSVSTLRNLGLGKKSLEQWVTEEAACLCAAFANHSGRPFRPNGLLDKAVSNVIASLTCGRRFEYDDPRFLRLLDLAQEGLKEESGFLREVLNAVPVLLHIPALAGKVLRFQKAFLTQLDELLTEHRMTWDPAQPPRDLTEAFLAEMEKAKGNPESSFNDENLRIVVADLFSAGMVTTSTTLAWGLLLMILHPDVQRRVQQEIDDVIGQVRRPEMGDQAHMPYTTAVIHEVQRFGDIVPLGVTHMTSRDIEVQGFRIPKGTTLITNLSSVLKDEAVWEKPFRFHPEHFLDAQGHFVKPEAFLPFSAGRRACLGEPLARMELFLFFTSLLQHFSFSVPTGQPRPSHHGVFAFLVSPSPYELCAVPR

CYP3A4, sequence (P08684 whole entry): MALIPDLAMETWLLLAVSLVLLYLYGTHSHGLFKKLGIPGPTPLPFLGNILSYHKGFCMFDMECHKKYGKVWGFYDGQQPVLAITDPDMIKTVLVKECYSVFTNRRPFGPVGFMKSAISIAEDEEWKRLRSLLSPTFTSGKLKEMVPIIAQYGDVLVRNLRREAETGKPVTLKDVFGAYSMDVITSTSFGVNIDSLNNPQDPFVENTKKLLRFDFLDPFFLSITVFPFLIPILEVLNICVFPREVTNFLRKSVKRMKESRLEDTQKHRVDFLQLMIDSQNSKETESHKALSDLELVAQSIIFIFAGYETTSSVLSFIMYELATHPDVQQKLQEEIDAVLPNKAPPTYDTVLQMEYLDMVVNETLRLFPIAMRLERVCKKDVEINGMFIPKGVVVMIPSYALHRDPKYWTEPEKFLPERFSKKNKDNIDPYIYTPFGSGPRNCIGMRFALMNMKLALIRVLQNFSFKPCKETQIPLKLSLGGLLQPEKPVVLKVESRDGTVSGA

With `O=C(Nc1ccc(N2CCC3(CC2)CC(C(=O)[O-])C3)nc1)c1nnc(Nc2ccc(F)c(F)c2)o1.[Na+]`, the inhibition (commonly the percentage by which the read-out fell short of the control) at 25 µM on CYP1A2 was 12%; at CYP3A4, 10%. The solubility (as a rule, the dissolved amount per volume that the medium holds) at 4 h was 179 µM in series [1], 36 µM in series [2], 1060 µM in series [3] and 723 µM in series [4].
On to `O=C(O)C[C@H]1CC[C@H](c2ccc(-c3ccc(Nc4ccc(C(F)(F)F)nc4)cn3)cc2)CC1` [PRADIGASTAT], for which the half-inhibitory concentration (IC50) (commonly the concentration that inhibits the measured activity by half) in series [5] was 66 nM.
Take `O=C([O-])CC1CCC2(CC1)CCC(c1ccc(NC(=O)c3nnc(Nc4ccc(F)c(F)c4)o3)cc1)CC2.[Na+]` (stereo unspecified): the inhibition at 25 µM was 5% at CYP1A2, 5% on CYP3A4 and 8% on CYP2D6. Besides, the solubility at 4 h in series [1] stood at 28 µM; in series [2], 263 µM; in series [3] it was 14 µM; in series [4], 17 µM.
Consider `O=C([O-])CC1CCC2(CC1)CCC(c1ccc(NC(=O)c3nnc(Nc4ccc(F)c(F)c4)o3)cn1)CC2.[Na+]` (stereo unspecified), for which the inhibition at 25 µM at CYP1A2 is 13%; on CYP3A4 it was 17%; on CYP2D6, 5%. Further, the solubility at 4 h in series [1] was under 6 µM; in series [2], under 6 µM; in series [3], under 6 µM; in series [4], 9 µM.
